{
  "source": "patent US20150190416A1",
  "about": "“FILAGGRIN PRODUCTION PROMOTER, THERAPEUTIC AGENT FOR DISEASES ASSOCIATED WITH REDUCTION IN PRODUCTION OF FILAGGRIN, AND METHOD FOR SCREENING FOR SAID THERAPEUTIC AGENT” (KYOTO UNIVERSITY, priority 2012, published 2015)",
  "assay_type_in_all_cases": "cell-based, human",
  "key": {"GPR22 mRNA": {"system": "GPR22 mRNA", "assay": "GPR22 mRNA expression in NHEK cells, real-time PCR (Example 4)", "conditions": "Compound 1 1 μM, 3 days", "protocol": "In this example, the expression-inducing effects of Compound 1 on GPR142 mRNA and GPR22 mRNA in NHEK cells were confirmed.\n(§1) 1) 5×10^4 cells/well of NHEK cells (Invitrogen) were plated on a 24-well plate. Then, 500 μl of a culture medium containing a medium for proliferating normal human epidermal keratinocytes (HuMedia-KG2, KURABO INDUSTRIES LTD.) supplemented with hEGF (0.1 ng/ml), insulin (10 μg/ml), hydrocortisone (0.5 μg/ml), gentamycin (50 μg/ml), amphotericin B (50 ng/ml), and bovine brain pituitary extract (BPE) (0.4%, v/v) were added to the plate, and the cells were cultured under the conditions of 37° C. and 5% CO2.\n2) After culture under the conditions of the step 1) for 1 day, the medium was exchanged for the culture medium of the step 1) to which a DMSO solution of Compound 1 was added at 1 μM per well every day and the culture was conducted for 3 days. […]\n3) An extraction reagent (TRIzol™, Invitrogen) was used, and according to the manufacturer's protocol, total RNA was extracted from each of cells treated with the medicament. […] Next, real-time PCR was conducted by using the following primers and SYBR™ Premix Ex Taq (Takara) with a CFX96 real-time PCR instrument according to the manufacturer's protocol, and the amounts of GPR142mRNA and GPR22mRNA expression were measured. […]"}, "GPR22": {"system": "GPR22", "assay": "Blocking effect by GPR22 RNAi in NHEK cells (Reference Example 1)", "conditions": "calcium priming, siRNA 10 nM, Compound 1 10 nM, 1 day", "protocol": "as §1\n2) 1 day after the step 1), the medium was exchanged for the medium supplemented with calcium every day, and culture was conducted for 2 days (priming).\n3) The NHEK cells of the step 2) were transfected with 10 nM of siRNA per well of the 24-well plate by using a transfection reagent, Lipofectamine RNA Max (Invitrogen) according to the manufacturer's protocol.\n4) After culture for 1 day after the step 3), the medium was exchanged for a medium to which Compound 1 dissolved in DMSO was added at 10 nM per well on the 24-well plate, and culture was conducted for 1 day. As a control example, a solvent only (vehicle) was added.\n5) An extraction reagent (TRIzol™, Invitrogen) was used, and according to the manufacturer's protocol, total RNA was extracted from each of cells treated with the medicament. A reverse transcriptase reagent (Prime Script™, Takara) was used, and according to the manufacturer's protocol, cDNA was prepared from the total RNA. Real-time PCR was conducted by using SYBR™ Premix Ex Taq (Takara) with a CFX96 real-time PCR instrument according to the manufacturer's protocol, and the amounts of GPR22 mRNA and FLG mRNA were measured. The results of measurement are shown as a GAPDH ratio."}, "GPR142": {"system": "GPR142", "assay": "G protein-coupled receptor (GPCR) array in NHEK cells, GPR142 (Example 3)", "conditions": "Compound 1 1 μM, 3 days", "protocol": "In this example, the expression-increasing effect of Compound 1 on a GPCR in NHEK cells was confirmed by using a GPCR array.\nas §1, with “plate, and then” for “plate. Then,”, “CO2 for from 3 to 4 days until the 80 to 85% confluent state was achieved.” for “CO2.”\n2) Next, a DMSO solution of Compound 1 was added to the medium at 1 μM per well, and culture was further conducted for 3 days without changing the medium. In addition, regarding the system to which only CaCl2 (1.5 mM in terms of Ca) as Ca was added and the system to which both Compound 1 and CaCl2 (1.5 mM in terms of Ca) as Ca were added, the culture was conducted in a similar manner for 3 days. As a control example, a solvent only (vehicle) was added.\n3) An extraction reagent (TRIzol™, Invitrogen) was used, and according to the manufacturer's protocol, total RNA was extracted from each of cells treated in the step 2). A reverse transcriptase reagent (Prime Script™, Takara) was used, and according to the manufacturer's protocol, cDNA was prepared from the total RNA. Next, a TaqMan™ human GPCR array (AB 4365295, Applied Biosystems) was used, and the analysis was conducted by an ABI PRISM™ 7900HT gene analyzer (Applied Biosystems). The result of measurement was shown as the comparison of the cycle number (ΔCt value) to 18S ribosomal RNA as a control (comparative Ct method)."}},
  "data": [
    {"smiles": "CCc1ccc(OCc2ccccc2C(=O)Nc2ccc3nc(C)cc(N)c3c2)cc1.Cl", "note": "[Compound 1, N-(4-Amino-2-methyl-6-quinolyl)-2-[(4-ethylphenoxy)methyl]benzamide hydrochloride]", "values": [
      {"measurement": "GPR22 mRNA expression (GAPDH ratio)", "setting": "GPR22 mRNA", "value": "induced GPR22 mRNA expression"},
      {"measurement": "FLG mRNA expression in the presence of GPR22 siRNA", "setting": "GPR22", "value": "not suppressed"},
      {"measurement": "GPR22 mRNA expression in the presence of GPR22 siRNA", "setting": "GPR22", "value": "suppressed by GPR22 siRNA"},
      {"measurement": "GPR142 mRNA expression (GPCR array), in words", "setting": "GPR142; Ca 1.5 mM", "value": "expression was induced"},
      {"measurement": "GPR142: cycle number (ΔCt value) to 18S ribosomal RNA", "setting": "GPR142; CaCl2 1.5 mM in terms of Ca, control 29.2", "value": "−4.9"}
    ]}
  ]
}
